Patent US7285564B2, “Substituted 4-amino-1-(pyridylmethyl)piperidine and related compounds” (Theravance, Inc., priority 2002, dated 2007)

Tested on: oxotremorine-induced salivation
Assay: In vivo rat salivation assay
Details: rat bladder assay vs rat salivation assay
Procedure: Female Sprague-Dawley rats weighing 200 to 300 g were anesthetized with urethane (1.5 g/kg, s.c., Sigma, St. Louis, Mo.), with a supplement of 0.25 g/kg, s.c. urethane as needed. Urethane was administered at a concentration of 0.25 g/mL.
Rats were placed on a heated blanket on their dorsal side in an inclined position (20° angle) position (head down). A swab was placed in the rat's mouth. The test compound or vehicle was administered intravenously via the tail vein. After 5 min., oxotremorine (1.0 mg/kg) was administered subcutaneously. The swab was discarded and
Replaced by a pre-weighed swab. Saliva was then collected for 10 min. and then the swab was removed and re-weighed to determine the output of saliva. Dose-response curves were fitted with a four parameter logistic equation to obtain estimates of ID50 (dose required to produce 50% of the maximal response).
By comparing the ID50 values determined in the rat bladder assay and rat salivation assay, the in vivo bladder/salivation selectivity ratio was calculated for the compounds tested.

Structure (SMILES)	ID50 bladder/salivation selectivity ratio
Cc1ccc(O)c([C@H](CCN(C(C)C)C(C)C)c2ccccc2)c1 [tolterodine, reference compound]	~4.8
CCN(CC)CC#CCOC(=O)C(O)(c1ccccc1)C1CCCCC1 (centres unmarked) [oxybutynin, reference compound]	about 1.4
